# Results published in patent publication US20100120700A1, “METHODS AND COMPOSITIONS FOR TREATING CERVICAL CANCER” (priority 2000, published 2010).
# Values joined by “and” are separate entries in the source; they are usually repeats but may differ in a detail not shown here. Identical values can stand only once.
# Legend:
# Test in all cases: G assay PDZ-PL binding
# [1] = target: T1, CARD14 domain 1 (Homo sapiens, UniProt Q9BXL6); settings: peptide 10 uM, protein 5
# T1 construct: made in house; host or cells: E. coli (DH5alpha, BL21 or JM109)
# Procedure: (§1) (1) A PDZ-domain polypeptide is bound to a surface, e.g. a protein binding surface. In a preferred embodiment, a GST/PDZ fusion protein containing one or more PDZ domains is bound to a polystyrene 96-well plate. […] In one embodiment, the GST/PDZ fusion protein is bound via an anti-GST antibody that is coated onto the 96-well plate. Adequate binding to the plate can be achieved when: • a. 100 uL per well of 5 ug/mL goat anti-GST polyclonal antibody (Pierce) in PBS is added to a polystyrene 96-well plate (e.g., Num Polysorb) at 4° C. for 12 hours. • b. The plate is blocked by addition of 200 uL per well of PBS/BSA for 2 hours at 4° C. • c. The plate is washed 3 times with PBS. • d. 50 uL per well of 5 ug/mL GST/PDZ fusion protein) or, as a negative control, GST polypeptide alone (i.e. not a fusion protein) in PBS/BSA is added to the plate for 2 hours at 4° C. • e. The plate is again washed 3 times with PBS.
# (§2) (2) Biotinylated PL peptides are allowed to react with the surface by addition of 50 uL per well of 20 uM solution of the biotinylated peptide in PBS/BSA for 10 minutes at 4° C., followed by an additional 20 minute incubation at 25° C.
# (§3) (3) The binding of the biotinylated peptide to the GST/PDZ fusion protein surface can be detected using a variety of methods and detectors known to one of skill in the art. In one embodiment, 100 uL per well of 0.5 ug/mL streptavidin-horse radish peroxidase (HRP) conjugate dissolved in BSA/PBS is added and allowed to react for 20 minutes at 4° C. The plate is then washed 5 times with 50 mM Tris pH 8.0 containing 0.2% Tween 20, and developed by addition of 100 uL per well of HRP-substrate solution (TMB, Dako) for 20 minutes at room temperature (RT). The reaction of the HRP and its substrate is terminated by addition of 100 uL per well of 1M sulfuric acid, and the absorbance of each well of the plate is read at 450 nm.
# (§4) (4) Specific binding of a PL peptide and a PDZ domain polypeptide is determined by comparing the signal from the well(s) in which the PL peptide and PDZ domain polypeptide are combined, with the background signal(s). The background signal is the signal found in the negative control(s). Typically a specific or selective reaction will be at least twice background signal, more typically more than 5 times background, and most typically 10 or more times the background signal. In addition, a statistically significant reaction will involve multiple measurements of the reaction with the signal and the background differing by at least two standard errors, more typically four standard errors, and most typically six or more standard errors. Correspondingly, a statistical test (e.g. a T-test) comparing repeated measurements of the signal with-repeated measurements of the background will result in a p-value<0.05, more typically a p-value<0.01, and most typically a p-value<0.001 or less. As noted, in an embodiment of the “G” assay, the signal from binding of a given PL peptide to immobilized (surface bound) GST polypeptide alone is one suitable negative control (sometimes referred to as “B 1”). Because all measurement are done in multiples (i.e. at least duplicate) the arithmetic mean (or, equivalently, average.) of several measurements is used in determining the binding, and the standard error of the mean is used in determining the probable error in the measurement of the binding. The standard error of the mean of N measurements equals the square root of the following: the sum of the squares of the difference between each measurement and the mean, divided by the product of (N) and (N−1). Thus, in one embodiment, specific binding of the PDZ protein to the platebound peptide is determined by comparing the mean signal (“mean S”) and standard error of the signal (“SE”) for a particular PL-PDZ combination with the mean B1. […]
# [2] = target: T2, KIAA0751 domain 1 (Homo sapiens, UniProt Q9UQ26); settings: peptide 10 uM, protein 5
# T2 construct: made in house; host or cells: E. coli (DH5alpha, BL21 or JM109)
# Procedure: as §1, §2, §3, §4
# [3] = target: T3, KIAA0973 #288.2 domain 1 (Homo sapiens, UniProt Q9Y2H9); settings: peptide 10 uM, protein 5
# T3 construct: made in house; host or cells: E. coli (DH5alpha, BL21 or JM109)
# Procedure: as §1, §2, §3, §4
# [4] = target: T4, KIAA1284 domain 1 (Homo sapiens, UniProt Q9ULD6); settings: peptide 10 uM, protein 5
# T4 construct: made in house; host or cells: E. coli (DH5alpha, BL21 or JM109)
# Procedure: as §1, §2, §3, §4
# [5] = target: T5, MAGI 1 domain 5 (Homo sapiens, UniProt Q96QZ7); settings: peptide 10 uM, protein 5
# T5 construct: made in house; host or cells: E. coli (DH5alpha, BL21 or JM109)
# Procedure: as §1, §2, §3, §4
# [6] = target: T6, NOS1 domain 1 (Homo sapiens, UniProt P29475); settings: peptide 10 uM, protein 5
# T6 construct: made in house; host or cells: E. coli (DH5alpha, BL21 or JM109)
# Procedure: as §1, §2, §3, §4
# [7] = target: T7, Outer Membrane domain 1 (Homo sapiens, UniProt P57105); settings: peptide 10 uM, protein 5
# T7 construct: made in house; host or cells: E. coli (DH5alpha, BL21 or JM109)
# Procedure: as §1, §2, §3, §4
# [8] = target: T8, PDZ-73 domain 2 (Homo sapiens, UniProt Q9Y6N9); settings: peptide 10 uM, protein 5
# T8 construct: made in house; host or cells: E. coli (DH5alpha, BL21 or JM109), vector pGEX-3X
# Procedure: as §1, §2, §3, §4
# [9] = target: T9, PSD95 domain 2 (Homo sapiens, UniProt P78352); settings: vs GST only well, peptide 10 uM, protein 5
# T9 construct: made in house; host or cells: E. coli (DH5alpha, BL21 or JM109)
# Procedure: as §1, §2, §3, §4
# [10] = target: T10, PTN-4 domain 1 (Homo sapiens, UniProt P29074); settings: peptide 10 uM, protein 5
# T10 construct: made in house; host or cells: E. coli (DH5alpha, BL21 or JM109), vector pGEX-3X
# Procedure: as §1, §2, §3, §4
# [11] = target: T11, SITAC-18 domain 2 (Homo sapiens, UniProt Q9H190); settings: peptide 10 uM, protein 5
# T11 construct: made in house; host or cells: E. coli (DH5alpha, BL21 or JM109)
# Procedure: as §1, §2, §3, §4
# [12] = target: T12, Syntrophin beta 2 domain 1 (Homo sapiens, UniProt Q13425); settings: peptide 10 uM, protein 5
# T12 construct: made in house; host or cells: E. coli (DH5alpha, BL21 or JM109)
# Procedure: as §1, §2, §3, §4
# [13] = target: T13, Syntrophin gamma 1 domain 1 (Homo sapiens, UniProt Q9NSN8); settings: peptide 10 uM, protein 5
# T13 construct: made in house; host or cells: E. coli (DH5alpha, BL21 or JM109), vector pGEX-3X
# Procedure: as §1, §2, §3, §4
# [14] = target: T14, ZO-2 domain 1 (Homo sapiens, UniProt Q9UDY2); settings: peptide 10 uM, protein 5
# T14 construct: made in house; host or cells: E. coli (DH5alpha, BL21 or JM109), vector pGEX-3X
# Procedure: as §1, §2, §3, §4
# [15] = target: T15, novel PDZ gene domain 1 (Homo sapiens, UniProt Q9H5P4); settings: peptide 10 uM, protein 5
# T15 construct: made in house; host or cells: E. coli (DH5alpha, BL21 or JM109)
# Procedure: as §1, §2, §3, §4
# T3 sequence (Q9Y2H9 963-1055): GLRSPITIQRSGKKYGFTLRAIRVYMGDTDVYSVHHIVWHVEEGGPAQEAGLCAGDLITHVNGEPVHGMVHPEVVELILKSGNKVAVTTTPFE
# T13 sequence (Q9NSN8 49-149): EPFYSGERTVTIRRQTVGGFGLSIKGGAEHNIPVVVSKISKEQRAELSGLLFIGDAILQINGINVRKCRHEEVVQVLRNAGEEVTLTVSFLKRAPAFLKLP
# T5 sequence (Q96QZ7 988-1099): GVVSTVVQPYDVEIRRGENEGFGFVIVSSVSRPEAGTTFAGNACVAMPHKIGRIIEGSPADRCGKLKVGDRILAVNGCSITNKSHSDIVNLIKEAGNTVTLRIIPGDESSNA
# T14 sequence (Q9UDY2 27-122): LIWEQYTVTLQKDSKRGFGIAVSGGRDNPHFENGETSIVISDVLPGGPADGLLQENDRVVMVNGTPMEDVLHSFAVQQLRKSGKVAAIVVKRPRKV
# T12 sequence (Q13425 with tags, fused parts or gaps): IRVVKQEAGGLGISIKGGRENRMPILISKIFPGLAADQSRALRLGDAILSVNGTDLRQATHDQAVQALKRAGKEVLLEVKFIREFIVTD
# T7 sequence (P57105 with tags, fused parts or gaps): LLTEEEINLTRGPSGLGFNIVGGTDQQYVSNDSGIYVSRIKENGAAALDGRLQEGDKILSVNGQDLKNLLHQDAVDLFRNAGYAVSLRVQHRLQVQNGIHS
# T6 sequence (P29475 11-100): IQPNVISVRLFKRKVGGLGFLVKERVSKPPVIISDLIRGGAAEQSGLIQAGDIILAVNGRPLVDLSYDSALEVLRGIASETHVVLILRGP
# T15 sequence (Q9H5P4 with tags, fused parts or gaps): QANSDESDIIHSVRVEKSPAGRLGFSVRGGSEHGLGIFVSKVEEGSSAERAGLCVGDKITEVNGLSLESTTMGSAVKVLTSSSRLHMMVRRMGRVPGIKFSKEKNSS
# T10 sequence (P29074 518-605): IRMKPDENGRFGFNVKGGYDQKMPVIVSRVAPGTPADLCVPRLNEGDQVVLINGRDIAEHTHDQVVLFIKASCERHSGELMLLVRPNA
# T4 sequence (Q9ULD6 159-271): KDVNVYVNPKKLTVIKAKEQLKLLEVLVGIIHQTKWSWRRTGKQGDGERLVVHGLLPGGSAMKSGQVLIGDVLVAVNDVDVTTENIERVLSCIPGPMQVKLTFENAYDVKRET
# T11 sequence (Q9H190 with tags, fused parts or gaps): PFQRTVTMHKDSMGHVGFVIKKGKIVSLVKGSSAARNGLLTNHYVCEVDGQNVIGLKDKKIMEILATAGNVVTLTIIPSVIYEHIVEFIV
# T8 sequence (Q9Y6N9 with tags, fused parts or gaps): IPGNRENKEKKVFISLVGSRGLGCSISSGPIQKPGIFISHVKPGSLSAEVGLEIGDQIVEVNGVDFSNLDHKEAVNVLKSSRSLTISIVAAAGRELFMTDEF
# T2 sequence (Q9UQ26 with tags, fused parts or gaps): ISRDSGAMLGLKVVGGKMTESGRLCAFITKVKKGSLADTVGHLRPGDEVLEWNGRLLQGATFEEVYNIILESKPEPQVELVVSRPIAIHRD
# T1 sequence (Q9BXL6 565-664): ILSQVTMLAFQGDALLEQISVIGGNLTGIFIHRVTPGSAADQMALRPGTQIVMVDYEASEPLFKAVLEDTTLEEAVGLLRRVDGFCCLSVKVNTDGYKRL
substance,measurement,setting,value
"20 mer peptide corresponding to the C-terminus of HPV16 E6 (PDZ ligand), biotinylated in binding assays; ends SSRTRRETQL (SEQ ID NO: 13) [HPV E6 #16]",Ave OD,[1]; A450 nm,0.342
same,OD S/N,[1]; vs GST only well,1.52
same,Ave OD,[2]; A450 nm,0.4505
same,OD S/N,[2]; vs GST only well,2.10
same,Ave OD,[3]; A450 nm,2.8295 and 3.85
same,OD S/N,[3]; vs GST only well,10.11 and 16.42
same,Ave OD,[4]; A450 nm,0.473
same,OD S/N,[4]; vs GST only well,2.72
same,Ave OD,[5]; A450 nm,0.4325 and 0.541
same,OD S/N,[5]; vs GST only well,1.77 and 3.12
same,Ave OD,[6]; A450 nm,0.4775
same,OD S/N,[6]; vs GST only well,2.88
same,Ave OD,[7]; A450 nm,2.392 and 1.3595
same,OD S/N,[7]; vs GST only well,11.39 and 6.25
same,Ave OD,[8]; A450 nm,0.5615
same,OD S/N,[8]; vs GST only well,1.95
same,OD S/N,[9],12.23 and 12.53
same,Ave OD,[10]; A450 nm,0.8085
same,OD S/N,[10]; vs GST only well,4.03
same,Ave OD,[11]; A450 nm,0.484
same,OD S/N,[11]; vs GST only well,2.46
same,Ave OD,[12]; A450 nm,1.1585 and 1.0325
same,OD S/N,[12]; vs GST only well,5.81 and 5.35
same,Ave OD,[13]; A450 nm,0.3585 and 0.618
same,OD S/N,[13]; vs GST only well,2.00 and 3.08
same,Ave OD,[14]; A450 nm,0.3415 and 0.622
same,OD S/N,[14]; vs GST only well,2.11 and 2.56
same,Ave OD,[15]; A450 nm,0.5455
same,OD S/N,[15]; vs GST only well,1.89
